Data from US5321043A, “Method of combatting transplant rejection” (The University of Melbourne, priority 1992, dated 1994).
Entries after “also recorded” stand apart in the source; their conditions may differ.

Tests used:
[1] = tested on: MLC response of responder lymphocytes to irradiated EBV-transformed lymphoblastoid cells; assay: Mixed lymphocyte culture (MLC) suppression by CyA and PG analogues, alone and combined (tritiated thymidine uptake); format: cell-based, human; conditions: for interaction with CyA on MLC suppression / decrease in PG analogue concentration necessary for 50% MLC suppression when combined with CyA vs alone: combination with CyA; for Suppression of MLC responses, mean % decrease of cpm vs drug-free cultures: mean of five donors
Description: Heparinised blood was obtained from five healthy donors without history of previous blood transfusion, pregnancy, or organ transplantation.
Prostaglandin (PG) analogues PGE1, PGE2, PGF2a, and PGI2 were supplied by the Upjohn Company (Kalamazoo, Mich.) in the form of 15-(s)-15-methyl PGE1, 16,16-dimethyl PGE2, 16,16-dimethyl PGF2α, and 9-deoxy-2,9a-methano-3-oxa-4,5,6-trinor-3,7-(1', 3'-interphenylene)-13,14'-dihydroprostaglandin FI (Compound A). Each was provided in methyl acetate at 10 mg/mL that was subsequently diluted, first with ethyl alcohol to a concentration of 1 mg/mL and thereafter with physiological saline to the concentration range required for the study, 10.0-0.001 μg/mL.
Responder lymphocytes were isolated from the healthy donor heparinised blood by density gradient separation and suspended in glutamine, antibiotic-supplemented RPMI medium containing 10% autologous responder lymphocyte donor serum at a concentration of 1 ×10^6 cells/mL. The stimulator population consisted of Epstein-Barr virus (EBV)-transformed lymphoblastoid cells that were irradiated (130 Gy) before suspension also at 1×10^6 cells/mL in glutamine, antibiotic-supplemented RPMI medium that contained 10% autologous responder lymphocyte donor serum.
Equal volumes (0.1 mL) of responder and stimulator cells were incubated in triplicate wells of microtitre trays with each of the following:
Following incubation at 37° C. (5% CO2) for 4 days, […] of tritiated thymidine was added to all cultures before further incubation for 6-8 hours, after which cells were automatically harvested (Skatron, Liebyen, Norway) on Titertek filter paper (Flow Laboratories, Irvine, Scotland) that was placed in vials containing liquid scintillation fluid for counting in a Beckman beta counter (Beckman, Brea, Calif.).

renal allograft = assay: Rabbit renal allograft survival; format: in vivo
Description: Left orthotopic renal transplantation was performed from New Zealand White rabbit donors into Anglo lop-ear recipients. See D. Francis et al., Aust. N. Z. J. Surgery 60, 45, 1990. Contralateral nephrectomy and graft biopsy were performed on the first post-operative day. Each recipient was subsequently dependent on its transplant for renal function. Serum creatinine (sCr) was measured every 48 hours and animals were culled once sCr had risen above 1.2 mMoles/1, taken as an arbitrary end-point representing graft failure. Graft biopsies were performed weekly and post-mortem to ensure that graft loss was secondary to rejection. Standard haematoxylin and eosin and Masson's trichrome stains were performed.
Compound A was provided as a powder which was dissolved in absolute ethanol to yield a 1 mg/ml solution. 50 μg/kg/day was administered subcutaneously for seven days commencing perioperatively. Ethanol (50 μl/kg/day) was administered in vehicle-only control animals.

[2] = Blood CyA levels after seven days treatment in nephrotoxicity study (Abbott TDX fluorescence immunoassay); format: in vivo, rabbit; conditions: CyA administered parenterally
Description: Compound A was provided as a powder which was dissolved in absolute ethanol to yield a […] solution. 50 ug/kg/day was administered subcutaneously for seven days. Ethanol (50 ul/kg/day) was administered in vehicle-only control animals.

[3] = tested on: New Zealand White rabbits; assay: Acute cyclosporine (CyA) nephrotoxicity in rabbits (serum creatinine, urea, histology); format: in vivo, rabbit; conditions: Compound A 50 ug/kg/day s.c. with CyA 100 mg/kg/day i.v.
Description: 50 ug/kg/day was administered subcutaneously for seven days. Ethanol (50 ul/kg/day) was administered in vehicle-only control animals.
Serum creatinine (Cr) and urea were measured prior to commencement of treatment (day 0) and 24 hours following treatment (day 7). Day 7 renal biopsies were stained with haematoxylin and eosin and Masson's trichrome.

[4] = PG analogue 0.01 μg/mL + CyA 0.001 μg/mL
[5] = PG analogue 0.01 μg/mL + CyA 0.01 μg/mL
[6] = PG analogue 0.01 μg/mL + CyA 0.1 μg/mL
[7] = PG analogue 0.01 μg/mL + CyA 1.0 μg/mL
[8] = PG analogue 0.01 μg/mL + CyA 10.0 μg/mL
[9] = PG analogue 0.1 μg/mL + CyA 0.001 μg/mL
[10] = PG analogue 0.1 μg/mL + CyA 0.01 μg/mL
[11] = PG analogue 0.1 μg/mL + CyA 0.1 μg/mL
[12] = PG analogue 0.1 μg/mL + CyA 1.0 μg/mL
[13] = PG analogue 0.1 μg/mL + CyA 10.0 μg/mL
[14] = PG analogue 1.0 μg/mL + CyA 0.001 μg/mL
[15] = PG analogue 1.0 μg/mL + CyA 0.01 μg/mL
[16] = PG analogue 1.0 μg/mL + CyA 0.1 μg/mL
[17] = PG analogue 1.0 μg/mL + CyA 1.0 μg/mL
[18] = PG analogue 1.0 μg/mL + CyA 10.0 μg/mL
[19] = PG analogue 10.0 μg/mL + CyA 0.001 μg/mL
[20] = PG analogue 10.0 μg/mL + CyA 0.01 μg/mL
[21] = PG analogue 10.0 μg/mL + CyA 0.1 μg/mL
[22] = PG analogue 10.0 μg/mL + CyA 1.0 μg/mL
[23] = PG analogue 10.0 μg/mL + CyA 10.0 μg/mL

| SMILES | Suppression of MLC responses by CyA in combination with PG analogue [1, 4] [%] | Suppression of MLC responses by CyA in combination with PG analogue [1, 5] [%] | Suppression of MLC responses by CyA in combination with PG analogue [1, 6] [%] | Suppression of MLC responses by CyA in combination with PG analogue [1, 7] [%] | Suppression of MLC responses by CyA in combination with PG analogue [1, 8] [%] | Suppression of MLC responses by CyA in combination with PG analogue [1, 9] [%] | Suppression of MLC responses by CyA in combination with PG analogue [1, 10] [%] | Suppression of MLC responses by CyA in combination with PG analogue [1, 11] [%] | Suppression of MLC responses by CyA in combination with PG analogue [1, 12] [%] | Suppression of MLC responses by CyA in combination with PG analogue [1, 13] [%] | Suppression of MLC responses by CyA in combination with PG analogue [1, 14] [%] | Suppression of MLC responses by CyA in combination with PG analogue [1, 15] [%] | Suppression of MLC responses by CyA in combination with PG analogue [1, 16] [%] | Suppression of MLC responses by CyA in combination with PG analogue [1, 17] [%] | Suppression of MLC responses by CyA in combination with PG analogue [1, 18] [%] | Suppression of MLC responses by CyA in combination with PG analogue [1, 19] [%] | Suppression of MLC responses by CyA in combination with PG analogue [1, 20] [%] | Suppression of MLC responses by CyA in combination with PG analogue [1, 21] [%] | Suppression of MLC responses by CyA in combination with PG analogue [1, 22] [%] | Suppression of MLC responses by CyA in combination with PG analogue [1, 23] [%] | also measured |
| --- | --- | --- | --- | --- | --- | --- | --- | --- | --- | --- | --- | --- | --- | --- | --- | --- | --- | --- | --- | --- | --- |
| CCCCC(C)(C)[C@H](O)/C=C/[C@@H]1[C@@H](C/C=C\CCCC(=O)O)[C@@H](O)C[C@H]1O [PGF2α, 16,16-dimethyl PGF2α] | 14 | 25 | 55 | 70 | 86 | 14 | 24 | 55 | 72 | 86 | 31 | 30 | 58 | 76 | 85 | 58 | 65 | 69 | 79 | 86 | interaction with CyA on MLC suppression ([1]; listed as PGF2a): no influence further than that exerted when each was added alone; also recorded: no indication of synergistic interaction with CyA; minimum concentration which alone induced 50% MLC inhibition ([1]; single agent): 10.0 µg/mL; Suppression of MLC responses, mean % decrease of cpm vs drug-free cultures ([1]; single agent at 0.001 μg/mL): 0%; Suppression of MLC responses, mean % decrease of cpm vs drug-free cultures ([1]; single agent at 0.01 μg/mL): 4%; Suppression of MLC responses, mean % decrease of cpm vs drug-free cultures ([1]; single agent at 0.1 μg/mL): 16%; Suppression of MLC responses, mean % decrease of cpm vs drug-free cultures ([1]; single agent at 1.0 μg/mL): 29%; Suppression of MLC responses, mean % decrease of cpm vs drug-free cultures ([1]; single agent at 10.0 μg/mL): 50% |
| CCCCC(C)(C)[C@H](O)/C=C/[C@H]1[C@H](O)CC(=O)[C@@H]1C/C=C\CCCC(=O)O [PGE2, 16,16-dimethyl PGE2] | 23 | 49 | 55 | 63 | 68 | 26 | 52 | 58 | 66 | 70 | 58 | 56 | 67 | 80 | 85 | 60 | 71 | 72 | 88 | 86 | decrease in PG analogue concentration necessary for 50% MLC suppression when combined with CyA vs alone [1]: 100 fold; Suppression of MLC responses, mean % decrease of cpm vs drug-free cultures ([1]; single agent at 0.001 μg/mL): 6%; Suppression of MLC responses, mean % decrease of cpm vs drug-free cultures ([1]; single agent at 0.01 μg/mL): 18%; Suppression of MLC responses, mean % decrease of cpm vs drug-free cultures ([1]; single agent at 0.1 μg/mL): 32%; Suppression of MLC responses, mean % decrease of cpm vs drug-free cultures ([1]; single agent at 1.0 μg/mL): 51%; Suppression of MLC responses, mean % decrease of cpm vs drug-free cultures ([1]; single agent at 10.0 μg/mL): 58%; times more effective in suppressing the MLC response than the PGF2a analogue ([1]; single agents): 10 times |
| CCCCC[C@H](O)CC[C@@H]1[C@H]2Cc3cccc(OCC(=O)O)c3C[C@H]2C[C@H]1O [Compound A, 9-deoxy-2',9α-methano-3-oxa-4,5,6-trinor-3,7-(1',3'-interphenylene)-13, 14--dihydro-prostaglandinF1] | 27 | 58 | 75 | 86 | 87 | 68 | 76 | 86 | 85 | 85 | 81 | 85 | 85 | 85 | 88 | 86 | 88 | 85 | 86 | 86 | effect on renal allograft survival (renal allograft; Compound A 50 μg/kg/day s.c., CyA 20 mg/kg where combined): prolonged allograft survival over that of untreated animals; Median Graft Survival (renal allograft; Compound A 50 μg/kg/day subcutaneously for seven days, no CyA): 13.5 days; decrease in PG analogue concentration necessary for 50% MLC suppression when combined with CyA vs alone [1]: 10 fold; interaction with CyA on MLC suppression [1]: a synergy that parallels that observed between CyA and the PGE analogues; Suppression of MLC responses, mean % decrease of cpm vs drug-free cultures ([1]; single agent at 0.001 μg/mL): 10%; Suppression of MLC responses, mean % decrease of cpm vs drug-free cultures ([1]; single agent at 0.01 μg/mL): 22%; Suppression of MLC responses, mean % decrease of cpm vs drug-free cultures ([1]; single agent at 0.1 μg/mL): 51%; Suppression of MLC responses, mean % decrease of cpm vs drug-free cultures ([1]; single agent at 1.0 μg/mL): 61%; Suppression of MLC responses, mean % decrease of cpm vs drug-free cultures ([1]; single agent at 10.0 μg/mL): 77%; times more effective in suppressing the MLC response than PGE1 and PGE2 ([1]; single agents): 10 times; effect on CyA bioavailability [2]: without effecting CyA bioavailability; effect on renal function, as measured by serum Cr and urea [3]: significant protective effect on renal function; effect on renal function, as measured by serum Cr and urea ([3]; listed as PGI2 analogue): significant protective affect on renal function |
